BindingDB's records for doi:10.1021/np970367q (Seoul National University, 1998)

Assay: Inhibition of bovine brain PI-PLCgamma1 at 125 ug/mL

Row | Structure (SMILES) | IC50 [µM]
1 | CCCCCCCCCCCCCc1cccc(O)c1 [3-tridecyl phenol] | 88
2 | CCCCCCCCCCCCCCCc1cccc(O)c1 [3-pentadecylphenol] | 92.6

The next lines start with the values.

Row | IC50 [µM] | Structure (SMILES)
3 | 95 | CCCCCC/C=C\CCCCCCCCCc1cccc(O)c1 [3-[10'(Z)-heptadecenyl]phenol]
4 | 74 | CCCCCC/C=C\CCCCCCCCCc1cccc(O)c1C(=O)O [6-[10'(Z)-heptade-cenyljsalicylic acid]
5 | 76.3 | CCCCCC/C=C\CCCCCCCc1cccc(O)c1C(=O)O [6-{8(Z)-pentadecenyl}salicylic acid]
